Biological target: T1, Sex hormone-binding globulin (Homo sapiens, UniProt P04278)
T1 sequence (P04278 whole entry): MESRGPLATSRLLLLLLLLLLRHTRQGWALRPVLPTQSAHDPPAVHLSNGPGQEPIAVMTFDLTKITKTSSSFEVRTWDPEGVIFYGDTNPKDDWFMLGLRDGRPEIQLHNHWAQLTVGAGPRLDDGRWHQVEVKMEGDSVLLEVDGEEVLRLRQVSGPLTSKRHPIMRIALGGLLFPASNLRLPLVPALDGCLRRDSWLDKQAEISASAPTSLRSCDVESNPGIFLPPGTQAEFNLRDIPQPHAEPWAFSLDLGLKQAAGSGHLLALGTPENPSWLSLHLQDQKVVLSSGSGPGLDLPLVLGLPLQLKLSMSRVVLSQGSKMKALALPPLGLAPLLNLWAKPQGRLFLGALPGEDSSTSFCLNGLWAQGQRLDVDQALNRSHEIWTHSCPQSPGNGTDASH
Assay: Displacement of [3H]5alpha dihydrotestosterone from human sex hormone binding globulin

Going from CC(=O)O[C@]1(C(C)=O)CC[C@H]2[C@@H]3C[C@H](C)C4=CC(=O)CC[C@]4(C)[C@H]3CC[C@@]21C [MEDROXYPROGESTERONE ACETATE] to C[C@]12CCC(=O)C=C1CC[C@@H]1[C@@H]2CC[C@@]2(C)[C@H]1CC[C@]2(C)O [METHYLTESTOSTERONE], the Kd falls from 631 nM to 3.72 nM (170-fold).

First: C[C@]12CCC(=O)C[C@@H]1CC[C@@H]1[C@@H]2CC[C@@]2(C)[C@H]1CC[C@]2(C)O [MESTANOLONE]
Second: C[C@]12CCC(=O)C[C@@H]1CC[C@@H]1[C@@H]2CC[C@]2(C)[C@@H](O)CC[C@@H]12 [STANOLONE]
The Kd of the first is 8.5-fold higher: 1.55 nM for the first, 0.182 nM for the second. The second binds more tightly here.

Going from C[C@H]1CC(=O)C[C@@H]2CC[C@H]3[C@@H]4CC[C@H](O)[C@@]4(C)CC[C@@H]3[C@]21C [MESTEROLONE] to C[C@]12CC[C@H]3[C@@H](CCC4=CC(=O)CC[C@@]43C)[C@@H]1CC[C@@H]2O [TESTOSTERONE], the Kd rises from 0.251 nM to 0.631 nM (2.5-fold).

Going from C[C@]12CC[C@H]3[C@@H](CCC4=CC(=O)CC[C@@H]43)[C@@H]1CC[C@@H]2O [NANDROLONE] to C#C[C@]1(O)CC[C@H]2[C@@H]3CCC4=CC(=O)CC[C@@H]4[C@H]3CC[C@@]21C [NORETHINDRONE], the Kd falls from 501 nM to 10.7 nM (47-fold).

Going from C[C@]12CC[C@H](O)CC1=CC[C@@H]1[C@@H]2CC[C@]2(C)C(=O)CC[C@@H]12 [PRASTERONE] to CC(=O)[C@H]1CC[C@H]2[C@@H]3CC=C4C[C@@H](O)CC[C@]4(C)[C@H]3CC[C@]12C [PREGNENOLONE], the Kd rises from 14.5 nM to 70.8 nM (4.9-fold).

For CC(=O)[C@H]1CC[C@H]2[C@@H]3CCC4=CC(=O)CC[C@]4(C)[C@H]3CC[C@]12C [PROGESTERONE], the Kd was 115 nM.
